Broadly, the EC50 is the concentration at which the effect is half-maximal. Higher therefore signals a need for much substance.

This is an account of results in BindingDB's records for doi:10.7270/Q2RJ4GVG (The Scripps Research Institute Molecular Screening Center, 2007).

Some results are limits rather than exact numbers.

The target of the assay is T1, Isoform 2 of Nuclear receptor ROR-alpha (Alpha-2) (Homo sapiens, UniProt P35398).
T1 sequence (P35398 whole entry): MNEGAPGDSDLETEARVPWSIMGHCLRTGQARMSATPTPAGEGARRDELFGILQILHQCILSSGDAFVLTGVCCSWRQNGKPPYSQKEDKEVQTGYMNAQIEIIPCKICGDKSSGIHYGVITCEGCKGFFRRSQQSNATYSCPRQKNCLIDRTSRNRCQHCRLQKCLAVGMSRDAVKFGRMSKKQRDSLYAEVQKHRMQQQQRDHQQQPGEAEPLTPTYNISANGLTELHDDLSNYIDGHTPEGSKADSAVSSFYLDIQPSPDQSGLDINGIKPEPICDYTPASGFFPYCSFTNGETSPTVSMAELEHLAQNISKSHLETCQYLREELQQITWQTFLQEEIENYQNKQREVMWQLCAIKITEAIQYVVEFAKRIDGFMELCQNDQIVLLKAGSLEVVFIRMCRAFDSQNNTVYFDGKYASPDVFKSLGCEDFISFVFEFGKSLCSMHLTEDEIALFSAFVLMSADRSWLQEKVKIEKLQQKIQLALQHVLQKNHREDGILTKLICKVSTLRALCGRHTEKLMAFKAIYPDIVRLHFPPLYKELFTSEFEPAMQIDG
Briefly: RORA ligand-binding domain transactivation agonists – cell-based, CHO-K1, Gal4-RORA LBD, luciferase luminescence, dose response (AID 681).

With `O=C1N(CCCN2C(=O)C3(OCCO3)c3ccccc32)c2ccccc2C12OCCO2` [1'-[3-(2'-ketospiro[1,3-dioxolane-2,3'-indoline]-1'-yl)propyl]spiro[1,3-dioxolane-2,3'-indoline]-2'-one], the EC50 was more than 99000 nM.

On to `COc1cc(C)c(C(C)C)cc1S(=O)(=O)n1cnc(C)c1` [1-(2-methoxy-4-methyl-5-propan-2-yl-phenyl)sulfonyl-4-methyl-imidazole], for which a half-maximal response (EC50) required 1850 nM.

Compound `CN1CCN(S(=O)(=O)c2ccc(Br)s2)CC1` [1-(5-bromanylthiophen-2-yl)sulfonyl-4-methyl-piperazine] registered an EC50 of more than 99000 nM.

`Clc1ccccc1OCCn1cnc2ccccc21` [1-[2-(2-chloranylphenoxy)ethyl]benzimidazole] gave an EC50 of more than 1220 nM.

In turn, `O=C(c1ccc(-c2nnc(-c3ccccc3)o2)cc1)N1CCCCCC1` [1-azepanyl-[4-(5-phenyl-1,3,4-oxadiazol-2-yl)phenyl]methanone] showed an EC50 of 282 nM.

Turning to `Cn1c(SCc2ccccc2F)nc2cccnc21` [2-(2-Fluoro-benzylsulfanyl)-3-methyl-3H-imidazo[4,5-b]pyridine], a half-maximal effect (EC50) was put at 1980 nM. Against the preceding compound, the EC50 is about 7-fold higher.

In turn, `Clc1ccc(-c2nnc(-c3ccccc3Cl)o2)cc1` [2-(2-chlorophenyl)-5-(4-chlorophenyl)-1,3,4-oxadiazole] registered an EC50 of 431 nM.

For `COc1ccc(Nc2oc(-c3ccccc3Cl)nc2C#N)cc1` [2-(2-chlorophenyl)-5-(4-methoxyanilino)-1,3-oxazole-4-carbonitrile], the EC50 stood at 1920 nM.

Compound `O=c1c2ccccc2nc2ccc(NCc3ccco3)nn12` [2-(2-furanylmethylamino)-10-pyridazino[6,1-b]quinazolinone] came in with an EC50 (inactive by the depositor's call) of 10800 nM.

`CCCCOC(=O)C(C)Oc1ccc(=O)n(-c2ccccc2)n1` (stereo unspecified) [2-(6-keto-1-phenyl-pyridazin-3-yl)oxypropionic acid butyl ester] displayed a half-maximal effective concentration (EC50) of more than 99000 nM.

For `CCOC(=O)c1ccccc1NC(=O)CSc1nnnn1C1CCCCC1` [2-[2-(1-Cyclohexyl-1H-tetrazol-5-ylsulfanyl)-acetylamino]-benzoic acid ethyl ester], the EC50 was more than 99000 nM.

For `Cc1cc(NCCOCCO)n2ncc(-c3ccc(Cl)cc3)c2n1` [2-[2-[[3-(4-chlorophenyl)-5-methyl-7-pyrazolo[1,5-a]pyrimidinyl]amino]ethoxy]ethanol], the EC50 is 536 nM.

Compound `CCCCOc1ccc(-c2nnn(CC(=O)NCc3ccco3)n2)cc1` [2-[5-(4-Butoxy-phenyl)-tetrazol-2-yl]-N-furan-2-ylmethyl-acetamide] came in with a concentration for a half-maximal effect (EC50) of 5070 nM.

`Nc1c(C(=O)NCCN2CCOCC2)c2nc3ccccc3nc2n1-c1ccc2c(c1)OCO2` [2-amino-1-(1,3-benzodioxol-5-yl)-N-(2-morpholin-4-ylethyl)pyrrolo[3,2-b]quinoxaline-3-carboxamide] registered an EC50 of more than 1100 nM.

`O=C(c1ccco1)N1CCN(c2ncnc3c(-c4ccccc4)nsc23)CC1` [2-furanyl-[4-(3-phenyl-7-isothiazolo[4,5-d]pyrimidinyl)-1-piperazinyl]methanone]: the EC50 was 4340 nM.

In the case of `COCCOC(=O)c1[nH]c2c(c1C)C(=O)CC(c1cc(OC)ccc1OC)C2` (stereo unspecified) [2-methoxyethyl 6-(2,5-dimethoxyphenyl)-3-methyl-4-oxo-1,5,6,7-tetrahydroindole-2-carboxylate], the EC50 was more than 3670 nM.

For the compound `Cc1cc(N)c(NC2=CC(=O)CC(C)(C)C2)cc1C` [3-(2-amino-4,5-dimethyl-anilino)-5,5-dimethyl-cyclohex-2-en-1-one], the EC50 was more than 99000 nM.

`CC(=O)C(C)Oc1ccc2c3c(c(=O)oc2c1C)CCCC3` (stereo unspecified) [3-(2-keto-1-methyl-propoxy)-4-methyl-7,8,9,10-tetrahydrobenzo[c]chromen-6-one] registered an EC50 of 628 nM.

Compound `COc1cccc(-c2noc(-c3cccs3)n2)c1` [3-(3-methoxyphenyl)-5-(2-thienyl)-1,2,4-oxadiazole] yielded an EC50 of more than 407 nM.

Regarding `COc1cccc(-c2noc(-c3cccnc3)n2)c1` [3-(3-methoxyphenyl)-5-(3-pyridinyl)-1,2,4-oxadiazole], the EC50 worked out at 853 nM.

`O=C1OC(N2CCN(Cc3ccccc3)CC2)c2ccccc21` (stereo unspecified) [3-(4-benzylpiperazin-1-yl)-3H-2-benzofuran-1-one] had an EC50 of more than 99000 nM.

For `Cc1cc(NC(=O)c2oc3ccccc3c2C)ccc1-n1cnnn1` [3-Methyl-benzofuran-2-carboxylic acid (3-methyl-4-tetrazol-1-yl-phenyl)-amide], the 50% effective concentration (EC50) is 8220 nM.

With `CCn1c(-c2ccc(N(C)C)cc2)nc2ccccc21` [4-(1-ethyl-2-benzimidazolyl)-N,N-dimethylaniline], the EC50 came out at 823 nM. Against the preceding compound, the EC50 is about 10-fold lower.

`COc1ccccc1-c1nc(-c2ccncc2)no1` [4-[5-(2-Methoxy-phenyl)-[1,2,4]oxadiazol-3-yl]-pyridine] registered an EC50 of 3440 nM. This EC50 lies about 4.2-fold higher than the previous one.

As for `Cc1ccccc1Cn1ccc(NC(=O)c2onc(C)c2Cl)n1` [4-chloranyl-3-methyl-N-[1-[(2-methylphenyl)methyl]pyrazol-3-yl]-1,2-oxazole-5-carboxamide], the EC50 is more than 11000 nM.

Consider `COc1ccc(C(=O)Nc2cc(C)on2)cc1` [4-methoxy-N-(5-methyl-1,2-oxazol-3-yl)benzamide], for which the response was half-maximal at 1050 nM (EC50).

Take `Cc1ccc(-c2nc(C#N)c(NCc3ccco3)o2)cc1` [5-(2-furanylmethylamino)-2-(4-methylphenyl)-4-oxazolecarbonitrile]: the EC50 amounted to 2320 nM.

For `Oc1coc2ccc(OCc3ccc(F)cc3)cc12` [5-(4-fluorobenzyl)oxycoumaran-3-one], a half-maximal response (EC50) required 3630 nM.

For `CCOc1ccc(-c2nc(C#N)c(NC3CC3)o2)cc1` [5-(cyclopropylamino)-2-(4-ethoxyphenyl)-1,3-oxazole-4-carbonitrile], a half-maximal effect (EC50) was put at 624 nM.

On to `Cc1ccc2nc(Nc3ccc4[nH]c(O)nc4c3)c(-n3nc(C)cc3C)nc2c1` [5-[[3-(3,5-dimethyl-1-pyrazolyl)-6-methyl-2-quinoxalinyl]amino]-1,3-dihydrobenzimidazol-2-one], for which the EC50 is more than 3670 nM.

`COc1cccc(NC(=O)c2nnn(Cc3ccc(Br)cc3F)c2N)c1` [5-amino-1-(4-bromo-2-fluoro-benzyl)-N-(3-methoxyphenyl)triazole-4-carboxamide] returned an EC50 of 4570 nM.

`O=C(Nc1ccc(N2CCCCC2)cc1)c1cncc(Br)c1` [5-bromanyl-N-(4-piperidin-1-ylphenyl)pyridine-3-carboxamide] gave an EC50 of 1020 nM.

Take `CCOc1cc(N2CCOCC2)c(OCC)cc1NS(=O)(=O)c1ccc(Cl)s1` [5-chloranyl-N-(2,5-diethoxy-4-morpholin-4-yl-phenyl)thiophene-2-sulfonamide]: the EC50 was 2640 nM.

`CCN(CCCNC(=O)c1cn(CC)c2ccc(S(=O)(=O)N(C)C)cc2c1=O)c1cccc(C)c1` [6-(dimethylsulfamoyl)-1-ethyl-N-[3-(N-ethyl-3-methyl-anilino)propyl]-4-keto-quinoline-3-carboxamide]: the EC50 was more than 99000 nM.

With `COC(=O)c1c(NC(=O)CC2SCC(C(=O)OC)NC2=O)sc2c1CCCC2` (stereo unspecified) [6-[2-[(3-carbomethoxy-4,5,6,7-tetrahydrobenzothiophen-2-yl)amino]-2-keto-ethyl]-5-keto-thiomorpholine-3-carboxylic acid methyl ester], the concentration giving a half-maximal response (EC50) is more than 99000 nM.

Compound `Cc1cccn2cc(-c3ccccc3)nc12` [8-methyl-2-phenyl-imidazo[1,2-a]pyridine] came in with an EC50 of 563 nM.
